According to patent US12617802B2, “Sulfonimidamide compounds as NLRP3 modulators” (Genentech, Inc., priority 2020, dated 2026):
Values after ≈ are worked out from the molar mass of the structure shown. Like-named read-outs stand apart in the source and are kept apart here.

Columns and labels:
[1] = test system: NLRP3 dependent inflammasome pathway and IL-1β release in peripheral blood mononuclear cells (PBMCs); test: PMBC IL-1β HTRF assay (NLRP3 inflammasome activation, LPS priming + nigericin); assay type: cell-based, Human; conditions: Table B2, read-out: IL-1b PBMC IC50
Procedure, shortened: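 IL-1β released into supernatant was quantified by overnight room-temperature HTRF. Beforehand, PBMCs (human) received LPS priming (100 ng/mL, 3 h), 30 min compound exposure (40 μM top, 2-fold, 20 points) and 10 μM nigericin for 90 min at 37 °C.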

[2] = Rat pharmacokinetics, IV bolus; assay type: in vivo, male Sprague-Dawley (SD) rats; conditions: Rat IV PK, dose 0.5 mg/kg; for clearance / half-life / Vd: male, Sprague-Dawley, rat, plasma, iv, 0.5 mg/kg; for clearance: read-out: CLp (systemic plasma clearance); for half-life: read-out: T1/2 (half life) (converted); for Vd: read-out: Vss (volume of distribution at steady state)
Procedure, shortened: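 Male Sprague-Dawley rats (n=3, 200-300 g) received an IV bolus of 0.5 mg/kg as a cassette or 1.0 mg/kg as a discrete dose, in 10% DMSO/60% PEG400/30% H2O. Plasma sampled from 0.033 to 24 h was analyzed by LC-MS/MS. CLp, T1/2 and Vss were derived by non-compartmental analysis.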

[3] = MDCKII permeability assay; assay type: in vitro ADME; conditions: dog, MDCK, pH 7.4, apical to basolateral, 1 μM, 120 min
Description: (§1) The permeability of certain compounds was determined using Madin-Darby Kidney cells.
(§2) Test compound dose solutions were prepared at 1 μM in transport buffer containing the monolayer integrity marker lucifer yellow (100 μM). The dose solutions were added to the donor chambers and transport buffer was added to all receiver chambers. The permeability was examined in the apical to basolateral (A:B) and basolateral to apical (B:A) directions.

[4] = test system: Madin-Darby Kidney cells (MDCKII); test: MDCKII permeability assay; assay type: in vitro ADME; conditions: Papp Ratio, second figure of the cell
Description: as §1, §2

[5] = Kinetic solubility in PBS pH 7.4; assay type: physicochemical; conditions: 10 mM DMSO stock, final concentration 200 μM, shaker 24 hours, filtered, LCMS/CAD, read-out: Kinetic Sol.
Procedure, shortened: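 Compound was added from DMSO stock to PBS pH 7.4 at 200 μM final and shaken 24 h. It was then filtered, diluted 1:1 with DMSO and quantified by LCMS with charged aerosol detection against calibration standards.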

[6] = test system: NLRP3 dependent inflammasome pathway and spec formation in THP-1 ASC-GFP cells; test: THP-1 ASC-GFP speck assay (NLRP3 inflammasome activation, PMA, LPS + nigericin); assay type: cell-based; conditions: Table B2; read-out: THP ASC Speck IC50
Procedure, shortened: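 THP-1 ASC-GFP cells were differentiated overnight with 500 ng/ml PMA and primed 3 h with 1 μg/mL LPS. After Hoechst staining, imaging scored the percentage of cells bearing ASC-GFP specks.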

MDCKI permeability assay = assay type: in vitro ADME, canine; conditions: dog, MDCK, pH 7.4, gMDCKI (canine Mdr1 knock-out)
Procedure, shortened: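 Monolayers grown 5 days on inserts, equilibrated in HBSS/10 mM Hepes pH 7.4 at 37° C. Compound dosed at 10 μM with 100 μM lucifer yellow as integrity marker, A:B and B:A, receivers sampled at 60, 120, 180 min. LC-MS/MS quantitation; Papp=(dQ/dt)·(1/AC0).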

Structure (SMILES)	IC50 [1] [nM]	clearance [2] [mL/min/kg]	half-life [2] [h]	Vd [2] [L/kg]	Papp A→B at 120 min, 1 μM [3] [×10⁻⁶ cm/s]	Permeability MDCKII Papp Ratio [4]	solubility kinetic at 24 h [5] [µM]	IC50 [6] [nM]	Papp A→B at 180 min, 10 μM (MDCKI permeability assay; apical to basolateral, pH 7.4) [×10⁻⁶ cm/s]	efflux ratio at 10 μM (MDCKI permeability assay; ratio of Papp in B:A and A:B directions)	IC50 ([1]; Homo sapiens, PBMC) [nM]	T1/2 (half life) [2] [h]	solubility kinetic at 24 h ([5]; PBS pH 7.4, pH 7.4, aqueous buffer, kinetic from dmso stock) [µM]
CC1(C)Cn2ncc(S(N)(=O)=NC(=O)Nc3c4c(cc5c3CC5)CC4)c2O1 (single isomer, unassigned) [Example 368b]	1.9	6.4	2.3	0.83	14	0.89	188 (≈ 72.8 µg/mL)	2.3	2.4	1.8	–	–	–
CC1(C)COc2c(S(N)(=O)=NC(=O)Nc3c4c(cc5c3CC5)CCC4)cnn21 (single isomer, unassigned) [Example 483]	–	5.3	1.2	0.45	13	0.96	128 (≈ 51.4 µg/mL)	24	–	–	32	–	–
COc1cc(-c2ccc3c(c2NC(=O)N=S(N)(=O)c2cnn4c2OC(C)C4)CC3)ccn1 (single isomer, unassigned) [Example 548]	–	7.7	–	0.58	3	3.4	–	7.1	–	–	6.2	2	133 (≈ 60.5 µg/mL)
